Several values for one entry are separate records, joined by “and”; a condition that tells them apart may be missing. Equal entries are not always repeated. Inconclusive results and toxic doses are left out. No stated cut-off is given here; in the data, active means T/C of 150% or more; inactive means T/C below 125%.
Tested on: L1210 leukemia ip in BDF1 mice, survival T/C
Test: NCI In Vivo Anticancer Drug Screen. Data for tumor model L1210 Leukemia (intraperitoneal) in B6D2F1 (BDF1) mice
Conditions: endpoint: mean survival time, higher = longer survival
Method in brief: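 Tumor cells were implanted, animals were treated, and survival was followed. The result divides the treated measurement by the vehicle-control measurement.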

[1] = dose: 100.0 mg/kg/injection, schedule: Q01DX001 (ip), vehicle: saline
[2] = dose: 100.0 mg/kg/injection, schedule: Q01DX009 (ip), vehicle: saline with Tween-80
[3] = dose: 200.0 mg/kg/injection, schedule: Q01DX009 (ip), vehicle: saline with Tween-80
[4] = dose: 400.0 mg/kg/injection, schedule: Q01DX009 (ip), vehicle: saline with Tween-80
[5] = dose: 200.0 mg/kg/injection, schedule: Q01DX001 (ip), vehicle: saline
[6] = dose: 400.0 mg/kg/injection, schedule: Q01DX001 (ip), vehicle: saline
[7] = dose: 100.0 mg/kg/injection, schedule: Q01DX009 (ip), vehicle: saline
[8] = dose: 100.0 mg/kg/injection, schedule: Q04DX003 (ip), vehicle: saline
[9] = dose: 200.0 mg/kg/injection, schedule: Q01DX009 (ip), vehicle: saline
[10] = dose: 200.0 mg/kg/injection, schedule: Q04DX003 (ip), vehicle: saline
[11] = dose: 400.0 mg/kg/injection, schedule: Q04DX003 (ip), vehicle: saline
[12] = dose: 25.0 mg/kg/injection, schedule: Q01DX009 (ip), vehicle: saline
[13] = dose: 100.0 mg/kg/injection, schedule: Q01DX009 (ip), vehicle: Klucel (hydroxypropylcellulose) (HPC)
[14] = dose: 200.0 mg/kg/injection, schedule: Q01DX009 (ip), vehicle: Klucel (hydroxypropylcellulose) (HPC)
[15] = dose: 400.0 mg/kg/injection, schedule: Q01DX009 (ip), vehicle: Klucel (hydroxypropylcellulose) (HPC)
[16] = dose: 100.0 mg/kg/injection, schedule: Q04DX003 (ip), vehicle: Klucel (hydroxypropylcellulose) (HPC)
[17] = dose: 200.0 mg/kg/injection, schedule: Q04DX003 (ip), vehicle: Klucel (hydroxypropylcellulose) (HPC)
[18] = dose: 400.0 mg/kg/injection, schedule: Q04DX003 (ip), vehicle: Klucel (hydroxypropylcellulose) (HPC)

Measured: T/C

S=C(Nc1ccc(Br)cc1)NC1CCCCC1
inactive: dose: 75.0 mg/kg/injection, schedule: Q01DX001 (ip), vehicle: other 88 % of control | dose: 150.0 mg/kg/injection, schedule: Q01DX001 (ip), vehicle: other 93 % of control | dose: 300.0 mg/kg/injection, schedule: Q01DX001 (ip), vehicle: other 95 % of control

CCC[CH2][Sn]1([CH2]CCC)[O]C(=O)C2C(C=C(C)C)C=C(C)C(C)C2C(=O)[O]1 (stereo unspecified)
inactive: dose: 5.0 mg/kg/injection, schedule: Q01DX001 (ip), vehicle: saline 93 % of control | dose: 10.0 mg/kg/injection, schedule: Q01DX001 (ip), vehicle: saline 104 % of control | dose: 20.0 mg/kg/injection, schedule: Q01DX001 (ip), vehicle: saline 104 % of control | dose: 40.0 mg/kg/injection, schedule: Q01DX001 (ip), vehicle: saline 96 % of control | dose: 80.0 mg/kg/injection, schedule: Q01DX001 (ip), vehicle: saline 102 % of control | [1] 117 % of control

COc1ccc2c(c1)CCC1=C2CCC(C)(C(=O)O)N1 (stereo unspecified)
inactive: [2] 98 % of control | [3] 95 % of control | [4] 87 % of control

CCCSc1ncnc2c1ncn2COC(=O)NC
inactive: [1] 97 % of control | [5] 108 % of control | [6] 108 % of control

CNC(Cc1ccccc1)C1CCCCC1 (stereo unspecified)
inactive: dose: 6.0 mg/kg/injection, schedule: Q04DX003 (ip), vehicle: Klucel (hydroxypropylcellulose) (HPC) 93 % of control | dose: 12.0 mg/kg/injection, schedule: Q01DX009 (ip), vehicle: Klucel (hydroxypropylcellulose) (HPC) 98 % of control | dose: 12.0 mg/kg/injection, schedule: Q04DX003 (ip), vehicle: Klucel (hydroxypropylcellulose) (HPC) 98 % of control | dose: 25.0 mg/kg/injection, schedule: Q01DX009 (ip), vehicle: Klucel (hydroxypropylcellulose) (HPC) 98 % of control | dose: 25.0 mg/kg/injection, schedule: Q04DX003 (ip), vehicle: Klucel (hydroxypropylcellulose) (HPC) 95 % of control and 109 % of control | dose: 50.0 mg/kg/injection, schedule: Q01DX009 (ip), vehicle: Klucel (hydroxypropylcellulose) (HPC) 95 % of control

CC1=C2CC(C(C)(C)O)CCC2(C)CC/C1=N\NC(N)=S (stereo unspecified)
inactive: [2] 98 % of control | [4] 86 % of control

O=C1CCC(=O)C12CCNCC2
inactive: [7] 97 % of control | [8] 100 % of control | [9] 104 % of control | [10] 88 % of control | [11] 107 % of control

COc1ccc(CN(CCO)C(C)=O)cc1
inactive: [7] 100 % of control | [8] 112 % of control | [9] 105 % of control | [10] 107 % of control | dose: 400.0 mg/kg/injection, schedule: Q01DX009 (ip), vehicle: saline 103 % of control | [11] 119 % of control

CC1C[N+](C)(C)N=C1[O-] (stereo unspecified)
inactive: [1] 104 % of control | [5] 98 % of control | [6] 95 % of control

COC1=CC23CCCN2CCc2cc4c(cc2C3C1OC(C)=O)OCO4 (stereo unspecified)
inactive: [12] 106 % of control | dose: 50.0 mg/kg/injection, schedule: Q01DX009 (ip), vehicle: saline 106 % of control | [7] 102 % of control

C/C(=N/NC(=O)CNC(=O)c1ccccc1)c1ccc2ccccc2c1
inactive: [2] 87 % of control | [3] 100 % of control

CC(=O)Oc1ccc(C[n+]2ccccc2)cc1
inactive: dose: 12.5 mg/kg/injection, schedule: Q01DX009 (ip), vehicle: saline 94 % of control | [12] 86 % of control | dose: 25.0 mg/kg/injection, schedule: Q04DX003 (ip), vehicle: saline 106 % of control | dose: 50.0 mg/kg/injection, schedule: Q04DX003 (ip), vehicle: saline 100 % of control

O=C1c2ccccc2C(=O)N1Cc1c(Cl)cccc1[N+](=O)[O-]
inactive: [13] 107 % of control | [14] 103 % of control | [15] 92 % of control

CCOC(=O)CC1=CCCCC1
inactive: [13] 103 % of control | [16] 102 % of control | [14] 107 % of control | [17] 96 % of control | [15] 98 % of control | [18] 86 % of control

COC1(c2ccccc2)C(c2ccccc2)=CC(c2ccccc2)=[N+]1[O-] (stereo unspecified)
inactive: dose: 75.0 mg/kg/injection, schedule: Q04DX003 (ip), vehicle: saline 92 % of control | dose: 150.0 mg/kg/injection, schedule: Q04DX003 (ip), vehicle: saline 89 % of control | dose: 300.0 mg/kg/injection, schedule: Q04DX003 (ip), vehicle: saline 91 % of control

NC(=O)C(=O)c1ccco1
inactive: [1] 92 % of control | [5] 101 % of control | [6] 108 % of control

CC(=O)CCN1C(=O)c2ccccc2C1=O
inactive: [13] 100 % of control | [16] 101 % of control | [14] 104 % of control | [17] 90 % of control | [15] 97 % of control | [18] 96 % of control

Cl/C(=C/C=C(c1ccccc1)c1ccccc1)c1ccccc1
inactive: dose: 100.0 mg/kg/injection, schedule: Q04DX002 (ip), vehicle: saline with Tween-80 88 % of control | dose: 200.0 mg/kg/injection, schedule: Q04DX002 (ip), vehicle: saline with Tween-80 88 % of control

Cc1ccccc1Nc1nc(N)nc2nc(N)c(C(N)=O)nc12
inactive: dose: 100.0 mg/kg/injection, schedule: Q04DX002 (ip), vehicle: Klucel (hydroxypropylcellulose) (HPC) 97 % of control | dose: 200.0 mg/kg/injection, schedule: Q04DX002 (ip), vehicle: Klucel (hydroxypropylcellulose) (HPC) 92 % of control | dose: 400.0 mg/kg/injection, schedule: Q04DX002 (ip), vehicle: Klucel (hydroxypropylcellulose) (HPC) 92 % of control

O=C(c1ccccc1)c1cccnc1
inactive: dose: 100.0 mg/kg/injection, schedule: Q04DX003 (ip), vehicle: saline with Tween-80 101 % of control | dose: 200.0 mg/kg/injection, schedule: Q04DX003 (ip), vehicle: saline with Tween-80 101 % of control | dose: 400.0 mg/kg/injection, schedule: Q04DX003 (ip), vehicle: saline with Tween-80 104 % of control

COc1ccc(Cl)cc1NC(=O)c1ccccc1Cl
inactive: [13] 95 % of control | [14] 102 % of control | [15] 101 % of control

CC(=O)OCc1ccc(Cl)c(Cl)c1
inactive: dose: 50.0 mg/kg/injection, schedule: Q01DX009 (ip), vehicle: saline sonified 100 % of control | dose: 100.0 mg/kg/injection, schedule: Q01DX009 (ip), vehicle: saline sonified 100 % of control | dose: 100.0 mg/kg/injection, schedule: Q04DX003 (ip), vehicle: saline sonified 101 % of control | dose: 200.0 mg/kg/injection, schedule: Q01DX009 (ip), vehicle: saline sonified 97 % of control | dose: 200.0 mg/kg/injection, schedule: Q04DX003 (ip), vehicle: saline sonified 107 % of control | dose: 400.0 mg/kg/injection, schedule: Q04DX003 (ip), vehicle: saline sonified 106 % of control

CCCCCC1(C=O)C(=O)NC(=O)N1C (stereo unspecified)
inactive: [1] 102 % of control | [5] 93 % of control | [6] 87 % of control

OCCN1CC2CCCC1O2 (stereo unspecified)
inactive: dose: 50.0 mg/kg/injection, schedule: Q01DX001 (ip), vehicle: saline 101 % of control | [1] 101 % of control | [5] 103 % of control | [6] 101 % of control
